Where a SMILES comes first, the peptide text is derived from it. Bridges are numbered along the chain shown (N, C = ends). [ ]: non-standard residue; d: D form. 2Nal = N[C@@H](Cc1ccc2ccccc2c1)C(=O)O; d2Nal = N[C@H](Cc1ccc2ccccc2c1)C(=O)O
Tests used:
β1-adrenergic receptor = biological target: T1, β1-adrenergic receptor (Homo sapiens, UniProt P08588); experiment: β1-adrenergic membrane receptor assay, [3H]dihydroalprenolol; assay type: binding; details: 1 μM
T1 construct: receptors on plasma membranes on various tissues determined as described in METHODS; from tissue; host or cells: plasma membranes
T1 sequence (P08588 whole entry): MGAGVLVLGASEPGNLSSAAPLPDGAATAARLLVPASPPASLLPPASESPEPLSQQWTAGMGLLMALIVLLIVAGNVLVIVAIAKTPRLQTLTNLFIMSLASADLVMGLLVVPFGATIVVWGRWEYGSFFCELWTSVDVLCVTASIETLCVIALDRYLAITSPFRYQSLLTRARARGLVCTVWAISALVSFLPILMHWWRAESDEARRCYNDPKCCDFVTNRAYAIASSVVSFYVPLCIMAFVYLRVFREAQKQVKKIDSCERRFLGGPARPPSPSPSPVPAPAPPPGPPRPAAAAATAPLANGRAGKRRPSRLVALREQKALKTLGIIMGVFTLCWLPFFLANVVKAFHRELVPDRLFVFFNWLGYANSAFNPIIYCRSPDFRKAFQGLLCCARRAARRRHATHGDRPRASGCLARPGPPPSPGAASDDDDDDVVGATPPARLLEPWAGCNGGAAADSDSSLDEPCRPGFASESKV

[1] = system: endothelin-1-stimulated increases in [3H]IP; experiment: Endothelin-1-stimulated [3H]IP in C-6 glioblastoma cells; assay type: cell-based, rat
Experimental: (§1) Total phosphoinositides in C-6 cells and in NMB-R transfected cells were determined as described previously, with minor modifications [Benya, R. V. et al. Mol. Pharmacol. 42:1058 (1992); and Wang, L-H. et al. Biochem. Jo 286:641 (1992)]. Cells were grown to confluence in 24-well plates and then loaded with 100 μCi/ml myo-[2-^3 H]inositol in Dulbecco's modified essential medium with 2% fetal bovine serum at 37° C. for 48 hrs. Cells were washed and incubated in phosphoinositide buffer (standard buffer additionally containing 10 mM LiCl, 20 mM HEPES, 2 mM CaCl2, 2% BSA, and 1.2 mM MgSO4) for 15 min and then for 60 min at 37° C. with agonists at various concentrations or with 3 nM NMB (a half-maximal effective concentration) and possible antagonists at different concentrations. Reactions were halted using ice-cold 1% HCl in methanol, and the inositol phosphates (IP) were isolated as described previously [Bologna, M. et al. Cancer 63:1714 (1989); and Endo, T. et al. J. Endocrinolo 131:313 (1991)]. Briefly, after loading of the anion exchange column, free [^3 H]glycerophosphorylinositol was removed by washing with 5 mM disodium tetraborate in 60 mM sodium formate. Total [^3 H]inositol phosphates were then eluted using 100 mM formic acid in 1.0M ammonium formate as described previously [Benya, R. V. et al. Mol. Pharmacol. 42:1058 (1992); and Wang, L-H. et al. Biochem. J. 286:641 (1992 )].
(§2) without SSoctapeptide analog added. C6 glioblastoma cells (50,000
(§3) cells/well) were incubated with myo[2^3 H]inositol for two days,
(§4) washed and then incubated with or without the indicated peptides for 60
(§5) minutes at 37° C. in phosphoinositide buffer containing 10 mM LiCl
(§6) as described in METHODS. [^3 H]IP was measured using Dowex AG1X8 anio

adenosine1 receptor = biological target: T2, adenosine1 receptor (Rattus norvegicus, UniProt P25099); experiment: Adenosine membrane receptor assay, rat cerebral cortex; assay type: binding; details: 1 μM
T2 construct: rat cerebral cortex (CCKB, PYY, neurotensin, α1 -adrenergic, α2 -adrenergic, muscarinic cholinergic, neural benzodiazepine, peripheral benzodiazepine, adenosine,; from tissue; host or cells: rat cerebral cortex membranes
T2 sequence (P25099 whole entry): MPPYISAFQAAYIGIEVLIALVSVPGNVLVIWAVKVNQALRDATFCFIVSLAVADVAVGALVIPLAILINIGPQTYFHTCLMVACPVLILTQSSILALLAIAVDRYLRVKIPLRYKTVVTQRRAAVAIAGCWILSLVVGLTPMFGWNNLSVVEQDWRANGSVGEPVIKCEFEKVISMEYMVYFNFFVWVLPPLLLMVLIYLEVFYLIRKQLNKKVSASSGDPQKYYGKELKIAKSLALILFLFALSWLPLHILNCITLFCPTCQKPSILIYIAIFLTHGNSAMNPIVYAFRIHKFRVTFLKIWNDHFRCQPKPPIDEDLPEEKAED

somatostatin receptors = biological target: T3, somatostatin receptors (Rattus norvegicus, UniProt P30680); experiment: Somatostatin membrane receptor assay, 125I-[Tyr11]SS-14, AR 42J cell membranes; assay type: binding; details: Cheng method; table prints no unit (b360 gives nM for a Table 4 value); read-out: affinity, 125I-[Tyr11]SS-14, AR 42J Cell Membranes (somatostatin receptors)
T3 construct: endogenous in cells; host or cells: rat AR 42J pancreatic acinar tumor cell membranes
T3 sequence (P30680 whole entry): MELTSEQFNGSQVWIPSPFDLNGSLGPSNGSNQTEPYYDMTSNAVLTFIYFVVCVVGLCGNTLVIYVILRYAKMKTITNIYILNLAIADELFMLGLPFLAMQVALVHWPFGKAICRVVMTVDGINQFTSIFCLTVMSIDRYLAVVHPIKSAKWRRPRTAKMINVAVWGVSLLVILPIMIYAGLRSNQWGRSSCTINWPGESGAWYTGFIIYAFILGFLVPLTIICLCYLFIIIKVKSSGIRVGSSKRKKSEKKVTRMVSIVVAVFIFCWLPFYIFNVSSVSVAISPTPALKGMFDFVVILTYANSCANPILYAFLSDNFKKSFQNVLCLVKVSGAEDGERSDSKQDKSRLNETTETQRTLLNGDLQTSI

delta opioid receptor = biological target: T4, delta opioid receptor (Rattus norvegicus, UniProt P33533); experiment: Delta opioid membrane assay, rat forebrain; assay type: binding; details: 1 μM
T4 construct: rat forebrain (TRH, mu and delta opioid membrane assays); from tissue; host or cells: rat forebrain membranes
T4 sequence (P33533 whole entry): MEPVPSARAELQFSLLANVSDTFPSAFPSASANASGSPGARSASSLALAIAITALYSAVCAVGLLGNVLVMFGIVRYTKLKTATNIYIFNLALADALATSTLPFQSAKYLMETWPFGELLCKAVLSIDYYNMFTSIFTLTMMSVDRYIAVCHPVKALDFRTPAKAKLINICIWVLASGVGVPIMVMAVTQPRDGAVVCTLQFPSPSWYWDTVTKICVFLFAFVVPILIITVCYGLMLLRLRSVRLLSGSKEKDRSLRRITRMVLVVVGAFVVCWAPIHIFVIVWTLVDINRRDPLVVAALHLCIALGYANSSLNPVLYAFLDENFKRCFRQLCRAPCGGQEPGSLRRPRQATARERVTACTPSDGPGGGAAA

GRP receptor = GRP receptor (Rattus norvegicus, UniProt P52500); experiment: Amylase release from rat pancreatic acini (alone or Bn-stimulated); assay type: cell-based; design: from tissue; host or cells: dispersed pancreatic acini; details: for Amylase Release, analog Alone (10 μM): analog 10 μM alone, control 4 ± 1; for Amylase Release, analog Plus Bn (0.3 nM): analog 10 μM plus Bn 0.3 nM, Bn without analog 15 ± 1; for IC50: read-out: IC50 Amylase Release, GRP Receptor, Rat Pancreatic Acini
Sequence of GRP receptor (P52500 whole entry): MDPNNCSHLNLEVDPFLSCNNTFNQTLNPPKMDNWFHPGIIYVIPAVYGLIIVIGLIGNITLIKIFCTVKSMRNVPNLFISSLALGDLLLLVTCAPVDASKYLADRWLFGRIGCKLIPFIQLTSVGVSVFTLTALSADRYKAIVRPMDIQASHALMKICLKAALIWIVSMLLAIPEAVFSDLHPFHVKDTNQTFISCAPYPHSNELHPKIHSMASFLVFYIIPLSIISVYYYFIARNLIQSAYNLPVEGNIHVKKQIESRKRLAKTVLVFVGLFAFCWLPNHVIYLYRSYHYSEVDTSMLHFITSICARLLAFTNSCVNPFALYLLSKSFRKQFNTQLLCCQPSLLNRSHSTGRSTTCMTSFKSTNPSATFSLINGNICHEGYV
Summary of the method: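 Rat pancreatic acini incubated 30 min at 37° C without additives or with somatostatin octapeptide analog, Bn, NMB or combinations. Amylase release expressed as percent of total cellular amylase released during incubation; for inhibition, somatostatin analog (10 μM) tested on 0.3 nM Bn-stimulated release.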

NMB receptor [2] = biological target: T5, NMB receptor (Rattus norvegicus, UniProt P24053); experiment: [3H]IP in C-6 glioblastoma cells (alone or NMB-stimulated); assay type: cell-based; design: a full length NMB-preferring bombesin receptor clone generated from rat esophagus; expressed in transfected cells
T5 sequence (P24053 1-390): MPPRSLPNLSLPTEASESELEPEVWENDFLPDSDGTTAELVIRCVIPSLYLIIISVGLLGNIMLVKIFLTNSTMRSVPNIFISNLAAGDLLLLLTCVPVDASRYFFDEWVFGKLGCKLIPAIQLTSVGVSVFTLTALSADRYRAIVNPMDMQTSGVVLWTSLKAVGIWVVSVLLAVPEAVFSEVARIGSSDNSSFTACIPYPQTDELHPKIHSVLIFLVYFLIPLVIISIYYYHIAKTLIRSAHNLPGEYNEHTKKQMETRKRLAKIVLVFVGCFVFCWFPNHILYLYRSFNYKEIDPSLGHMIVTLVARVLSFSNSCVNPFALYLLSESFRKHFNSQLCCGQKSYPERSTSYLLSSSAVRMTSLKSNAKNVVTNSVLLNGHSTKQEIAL
Experimental: as §1, §2, §3, §4, §5, §6

TRH receptor = experiment: TRH membrane assay, rat forebrain; assay type: binding; details: 1 μM
histamine H1 receptor = biological target: T6, histamine H1 receptor (Cavia porcellus, UniProt P31389); experiment: Histamine H1 membrane receptor assay, guinea pig cerebral; assay type: binding; details: 1 μM
T6 construct: guinea pig cerebral (N1, histamine H1, and sigma opioid membrane receptor assays); from tissue; host or cells: guinea pig cerebral membranes
T6 sequence (P31389 whole entry): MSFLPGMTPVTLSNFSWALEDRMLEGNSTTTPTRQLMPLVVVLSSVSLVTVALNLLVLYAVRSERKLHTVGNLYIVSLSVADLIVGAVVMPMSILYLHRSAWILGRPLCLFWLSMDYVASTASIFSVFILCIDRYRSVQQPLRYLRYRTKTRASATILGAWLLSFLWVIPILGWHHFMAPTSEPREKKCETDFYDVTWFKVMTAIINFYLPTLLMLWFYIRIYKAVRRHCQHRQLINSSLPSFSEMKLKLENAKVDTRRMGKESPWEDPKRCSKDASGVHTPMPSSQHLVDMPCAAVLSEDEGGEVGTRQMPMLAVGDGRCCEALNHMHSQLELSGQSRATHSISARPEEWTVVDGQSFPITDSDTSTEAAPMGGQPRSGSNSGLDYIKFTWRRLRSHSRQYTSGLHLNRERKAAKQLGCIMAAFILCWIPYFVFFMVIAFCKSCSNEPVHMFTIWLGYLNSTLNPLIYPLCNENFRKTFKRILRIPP

[3] = biological target: T7, benzodiazepine-peripheral receptor (Rattus norvegicus, UniProt P16257); experiment: Peripheral benzodiazepine membrane receptor assay, rat cerebral cortex; assay type: binding; details: 1 μM
T7 construct: from tissue; host or cells: rat cerebral cortex membranes
T7 sequence (P16257 whole entry): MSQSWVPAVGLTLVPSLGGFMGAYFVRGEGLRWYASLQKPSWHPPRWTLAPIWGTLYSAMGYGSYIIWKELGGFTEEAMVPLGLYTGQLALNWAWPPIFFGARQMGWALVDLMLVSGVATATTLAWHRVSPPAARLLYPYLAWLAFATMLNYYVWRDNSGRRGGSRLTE

[4] = biological target: T8, N-methyl D-aspartate receptors (Rattus norvegicus, UniProt P35439); experiment: N-methyl-D-aspartate membrane receptor assay, rat cerebral cortex; assay type: binding; details: 1 μM
T8 construct: from tissue; host or cells: rat cerebral cortex membranes

[5] = biological target: T9, GRP receptors on rat pancreatic acini (Rattus norvegicus, UniProt P52500); experiment: Binding of 125I-[Tyr4]bombesin to pancreatic acini; details: read-out: Ki 125I-[Tyr4]Bn Binding, GRP Receptor, Rat Pancreatic Acini; Ki by Cheng method
T9 construct: from tissue; host or cells: dispersed pancreatic acini
T9 sequence (P52500 whole entry): as the sequence (P52500 whole entry) above
Description: (§7) Nonsaturable binding was<10% of total binding in all experiments.

[6] = system: GRP receptors on rat pancreatic acini; experiment: Binding of 125I-[Tyr4]bombesin to pancreatic acini; details: NMB-R transfected cells vs GRP-R on rat pancreatic acini
Description: as §7

PYY receptor = experiment: PYY membrane receptor assay, rat cerebral cortex; assay type: binding; details: 1 μM
NMB receptor [7] = biological target: T5, NMB receptor; experiment: NMB membrane receptor assay, 125I-NMB, rat olfactory bulb membranes; assay type: binding; design: Membranes were prepared from rat olfactory bulb (NMB membrane receptor assay); from tissue; host or cells: rat olfactory bulb membranes; details: for Ki: Cheng method, unit inferred, read-out: affinity, 125I-NMB, Rat Olfactory bulb membranes (neuromedin B receptors)

CC(C)[C@@H]1NC(=O)[C@H](CCCCN)NC(=O)[C@@H](Cc2c[nH]c3ccccc23)NC(=O)[C@H](Cc2ccc(O)cc2)NC(=O)[C@@H](NC(=O)[C@H](N)Cc2ccc3ccccc3c2)CSSC[C@@H](C(=O)N[C@@H](Cc2ccc3ccccc3c2)C(N)=O)NC1=O [Analog #1, H2 -D-Nal-Cys-Tyr-D-Trp-Lys-Val-Cys-Nal-NH2] (H-[d2Nal]CY[dW]KVC[2Nal]-NH2; disulfide 2-7)
inhibition of binding to β1-adrenergic receptors (β1-adrenergic receptor): did not inhibit binding | [3H]IP with ET-1 (0.1 nM) ([1]; analog 10 μM, ET-1 alone 11.0 ± 2.1): 10.9 ± 1.8 dpm × 10^3 | effect on endothelin-1-stimulated increases in [3H]IP in C-6 cells ([1]; listed as Cycle SS-octa): did not inhibit | effect on endothelin-1-stimulated increases in [3H]IP in C-6 cells ([1]; listed as cyclo SS octa): no effect | inhibition of binding to adenosine1 receptors (adenosine1 receptor): did not inhibit binding | Ki (somatostatin receptors): 0.8 ± 0.5 nM | inhibition of binding to delta opioid receptors (delta opioid receptor): did not inhibit binding | effect on Bn-stimulated amylase release (GRP receptor; 0.3 nM Bn): did not inhibit | Amylase Release, analog Alone (10 μM) (GRP receptor): 5 ± 1 % total | Amylase Release, analog Plus Bn (0.3 nM) (GRP receptor): 15 ± 2 % total | IC50 (GRP receptor): > 10000 nM | effect on NMB-stimulated increases in [3H]IP in C-6 cells (NMB receptor [2]): inhibited | [3H]IP, no peptide added (NMB receptor [2]; analog 10 μM, 60 min 37° C., control 7.2 ± 1.0): 7.4 ± 1.3 dpm × 10^3 | [3H]IP with NMB (10 nM) (NMB receptor [2]; analog 10 μM, NMB alone 21.0 ± 1.8): 7.5 ± 1.0 dpm × 10^3 | inhibition of binding to TRH receptors (TRH receptor): did not inhibit binding | inhibition of binding to histamine H1 receptors (histamine H1 receptor): did not inhibit binding | inhibition of binding to benzodiazepine-peripheral receptors [3]: did not inhibit binding | inhibition of binding to N-methyl D-aspartate receptors [4]: did not inhibit binding | Ki [5]: 18300 ± 2110 nM | fold greater affinity for NMB than GRP receptors [6]: 84 fold | fold greater affinity for NMB than GRP receptors ([6]; listed as cyclo SS-octa): 100 fold | inhibition of binding to PYY receptors (PYY receptor): did not inhibit binding | Ki (NMB receptor [7]): 43 ± 9 nM | fold greater affinity for NMB receptors than mu opioid receptors (NMB receptor [7]; membranes, Table 4): 10 fold

CC(C)[C@@H]1NC(=O)[C@H](CCCCN)NC(=O)[C@@H](Cc2ccc3ccccc3c2)NC(=O)[C@H](Cc2ccc(O)cc2)NC(=O)[C@@H](NC(=O)[C@H](N)Cc2ccc3ccccc3c2)CSSC[C@@H](C(=O)N[C@@H](Cc2ccc3ccccc3c2)C(N)=O)NC1=O [Analog #17, H2 -D-Nal-Cys-Tyr-D-Nal-Lys-Val-Cys-Nal-NH2] (H-[d2Nal]CY[d2Nal]KVC[2Nal]-NH2; disulfide 2-7)
Ki (somatostatin receptors): 570 ± 180 nM | Amylase Release, analog Alone (10 μM) (GRP receptor): 4 ± 2 % total | Amylase Release, analog Plus Bn (0.3 nM) (GRP receptor): 19 ± 1 % total | IC50 (GRP receptor): > 10000 nM | Ki [5]: > 10000 nM | fold greater affinity for NMB than GRP receptors [6]: > 100 fold | Ki (NMB receptor [7]): 850 ± 300 nM
